From US20220073475A1, “5-MEMBERED HETEROARYL COMPOUNDS CONTAINING A HYDROXAMATE MOIETY AND THEIR USE” (UNIVERSITE DE LILLE, priority 2019, published 2022)

Key:
[1] = test system: TLM1 cells; experiment: X-ray radiation in combination with compound, propidium iodide dead cells, ratio of corrected AUC; assay type: cell-based, canine; details: for Potency of X-ray radiations in combination with compound (in words): TLM1
Description: (§1) Canine melanoma TLM-1 cells are maintained in DMEM medium supplemented with GlutaMAX™, 10% fetal bovine serum, 1× Hepes and 1% penicillin-streptomycin.
TLM-1 cells were seeded with the BioTek MicroFlo™ dispenser in μClear® black 384-well plates (Greiner) at the density of 20,000 cells/mL in 50 μL. Compounds for pre-treatment were added 2 h after the seeding, using an Echo 550 (Labcyte). The next day, cells were washed five times with 40 μL media without phenol red with a plate washer (Hydrospeed, Tecan). Cells were irradiated with 4, 6, 8, 12, 16, 20 and 24 Gray (Gy). […] This step was repeated every 72 h after radiation. Plates were incubated at 37° C. and 5% CO2. […] 4 images per well were collected. Images were analyzed with Columbus software (Perkin Elmer). In this system we used predefined building blocks to measure different parameters on nuclei detected. We applied a threshold based on propidium iodide intensity in nuclei of controls to select and count dead cells. By dividing the number of dead cells by the number of nuclei detected we obtained the percentage of dead cells. AUC were determined in one experiment with triplicate incubates on percentage of cells labelled with propidium iodide and were corrected by the percentage of cells labelled with propidium iodide at 0 Gy. Ratio of AUC corrected was determined as followed: Activity=(Area of the dose-concentration curve of cytotoxic agent combined with one concentration of compound corrected by the effect of the compound alone at 0Gy)/(Area of the dose-concentration curve of radiation alone corrected by the effect of the vehicle at 0Gy).

[2] = test system: RPMI 8226 cells; experiment: Epoxomicin (EPX) in combination with compound 3, Annexin V/PI flow cytometry; assay type: cell-based, human; details: RPMI 8226 (FIG. 1A), compound at 7.5 μM, 15 μM and 30 μM
Description: (§2) RPMI 8226 and MOPC315.BM cells were cultured in RPMI 1640 medium supplemented with L-glutamine, non-essential amino acids, 2-mercaptoethanol and 10% fetal calf serum.
(§3) Cells were seeded in 24-well culture plates at 150,000 cells/well/mL. […] Cells were treated with protease inhibitors for 24 and 48 hours before analysis for apoptosis and cell death by flow cytometry. The cells were centrifuged at 300×g for 5 minutes and washed with cold FACS buffer (PBS 1× with 2 mM EDTA and 0.5% BSA. Then the cells were resuspended in Annexin V binding buffer (BioLegend) at a concentration of 10^6 cells/mL, and 100 μL of each sample was transferred to a 5 mL FACS tube. 5 μL of Annexin V-FITC Ab (BioLegend) and 5 μL of propidium iodide (BioLegend) were added to each sample and incubated 15 min at RT. Finally, 400 μL of Annexin V binding buffer was added to each tube and the cells were analyzed using BD FACSCanto or BD Fortessa machines within an hour. Annexin+ but PI− cells were identified as apoptotic and Annexin+ PI+ as dead cells.

[3] = test system: TLM1 cells; experiment: UV-C radiation in combination with compound, ratio of % propidium iodide labelled cells; assay type: cell-based, canine; details: for Potency of UV-C radiations in combination with compound (in words): TLM1
Description: as §1
Plates were incubated at 37° C. and 5% CO2. […] 4 images per well were collected. Images were analyzed with Columbus software (Perkin Elmer). In this system we used predefined building blocks to measure different parameters on nuclei detected. We applied a threshold based on propidium iodide intensity in nuclei of controls to select and count dead cells. By dividing the number of dead cells by the number of nuclei detected we obtained the percentage of dead cells.

[4] = test system: MOPC315.BM cells; experiment: Epoxomicin (EPX) in combination with compound 3, Annexin V/PI flow cytometry; assay type: cell-based, murine; details: MOPC315.BM (FIG. 1B), compound at 7.5 μM, 15 μM and 30 μM
Description: as §2, §3

[5] = test system: OPM2 cells; experiment: CFZ potency increase, ratio of CC50 of CFZ alone / with compound; assay type: cell-based, human
How it was run: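 OPM2 cells (12,000/well, 0.2% DMSO) treated with compound plus carfilzomib, with NucView 488 caspase-3/7 substrate (1 μM) and Hoechst 33342, 37 °C; confocal imaging over time gives % apoptotic cells. CFZ CC50 from 4-parameter fits alone and with compound; activity = CC50 alone / CC50 with compound.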

[6] = test system: MCF7 cells; experiment: as above; assay type: cell-based, human; details: MCF7, compound at 15 μM
Description: Human epithelial MCF7 cells (mammary gland adenocarcinoma) are maintained in EMEM medium supplemented with GlutaMAX™, 10% fetal bovine serum, 0.01 mg insulin and 1% penicillin-streptomycin.
(§4) We developed a cell-based, high content assay allowing the rapid detection and quantification of apoptotic cells. Caspase-3/7 activity was detected in real-time using the NucView™ 488 Caspase-3 substrate (Biotium), where the caspase-3/7 substrate peptide sequence DEVD is attached to a nucleic acid dye. The NucView™ 488 reagent crosses the plasma membrane to enter the cytoplasm, where the dye is unable to bind to DNA and remains non-fluorescent. Once the substrate has been cleaved by activated caspase-3/7 in apoptotic cells, the high-affinity DNA dye is released and migrates to the cell nucleus to stain the nucleus with a bright green fluorescence. All cell nuclei were also labeled with Hoechst 33342 (Ozyme).
(§5) For HeLa and MCF7 cells, briefly, cells were seeded in 384-microtiter well plate (1500 HeLa cells or 5000 MCF7 cells in 40 μL full medium per well) and let to attach overnight. Then the compound of the invention and the RE stressor were transferred to the cell culture plate using an Echo555 liquid handler (Labcyte) and 30 μL medium containing NucView™ and Hoechst 33342 were added. Final NucView™ 488 and Hoechst 33342 concentrations were 1 μM and 20 ng/mL, respectively. DMSO content was maintained at 0.2%. The microplates were incubated at 37° C. and 5% CO2 in an automated LiCONiC STR240 UB cell incubator, and images were acquired at various times at 405 nm and 488 nm with the high-resolution automated confocal microscope INCell 6000 (GE). Four fields per well were read with the 20× objective in a confocal mode. The BioCel workstation was managed by VWorks automation control software (Agilent).
(§6) For all cells, Columbus software (Perkin) was used for image quantification and analysis. First, Hoechst 33342 staining was used for an automated detection of nuclei, in which the mean fluorescence intensity for NucView™ 488 was quantified. Inspection of control cells at initial time was used to set a threshold level of NucView™ 488 fluorescence to separate non apoptotic cells from apoptotic cells. Finally, for each well, the result was expressed as percentage of apoptotic cells in the total cell population. CC50 values were calculated from concentration-response curves by a nonlinear regression analysis at four parameters using Excel Fit or GraphPad Prim softwares.
(§7) Activity=(% of apoptotic cells with cytotoxic agent in combination with compound of the invention)/(% of apoptotic cells with cytotoxic agent alone). • Ratio of CC50: The CC50 of the cytotoxic agent was calculated in absence and in presence of a compound of the invention.
(§8) Activity=(CC50 of agent alone)/(CC50 of agent with compound). • Ratio of AUC. Activity=(Area of the dose-concentration curve of cytotoxic agent combined with one concentration of compound)/(Area of the dose-concentration curve of cytotoxic agent alone). (Lehar J. et al, 2008 (molecular systems biology 4:215)).

[7] = test system: HeLa cells; experiment: as above; assay type: cell-based, human; details: compound at 7.5 μM
From the text: Human HeLa cells (uterine cervical carcinoma) are maintained in DMEM medium supplemented with GlutaMAX™, 10% fetal bovine serum and 1% penicillin-streptomycin.
as §4, §5, §6, §7, §8

| Compound | Potency of X-ray radiations in combination with compound (in words) [1] | Cytotoxicity of epoxomicin in combination with compound [2] | Potency of UV-C radiations in combination with compound (in words) [3] | Cytotoxicity of epoxomicin in combination with compound [4] | Activity: ratio (CC50 of CFZ alone)/(CC50 of CFZ in combination with compound of the invention) ([5]; OPM2, compound at 7.5 μM (Table 5)) | Activity: ratio (CC50 of CFZ alone)/(CC50 of CFZ in combination with compound of the invention) ([5]; OPM2, compound at 7.5 μM (Table 6)) | Activity: ratio (CC50 of CFZ alone)/(CC50 of CFZ in combination with compound of the invention) [6] | Activity: ratio of corrected AUC of X-ray radiation in combination with compound / corrected AUC of X-ray radiation alone ([1]; TLM1, compound at 30 μM) | Activity: ratio of percentage of cells labelling with propidium iodide, compound vs vehicle ([3]; TLM1, 15 μM compound 24 h before and just after UV-C, 48 h after UV-C at 400 J/m^2, mean of three experiments) | Activity: ratio (CC50 of CFZ alone)/(CC50 of CFZ in combination with compound of the invention) [7] |
| --- | --- | --- | --- | --- | --- | --- | --- | --- | --- | --- |
| O=C(C[C@@H](Cc1ccc2ccccc2c1)n1cc(CNC(=O)c2ccc(F)cc2)nn1)NO [Compound 3, 4-Fluoro-N-[1-(R-2-hydroxycarbamoyl-1-naphthalen-2-ylmethyl-ethyl)-1H-[1,2,3]-triazol-4-ylmethyl]-benzamide] | increase the potency | increased | increase the potency | increased |  |  |  |  |  |  |
| Cc1cc(C(=O)NCc2cn([C@@H](CC(=O)NO)Cc3ccc4ccccc4c3)nn2)ccc1F [Compound 80, 4-fluoro-N-[[1-[(1R)-3-(hydroxyamino)-1-(2-naphthylmethyl)-3-oxo-propyl]triazol-4-yl]methyl]-3-methyl-benzamide] | increase the potency |  | increase the potency |  | 2.2 | 2.2 | 2.4 | 2.7 | 2.3 | 3.6 |
